The target in assay [1] is T1, Mannose-6-phosphate isomerase (Homo sapiens, UniProt P34949).
T1 sequence (P34949 whole entry): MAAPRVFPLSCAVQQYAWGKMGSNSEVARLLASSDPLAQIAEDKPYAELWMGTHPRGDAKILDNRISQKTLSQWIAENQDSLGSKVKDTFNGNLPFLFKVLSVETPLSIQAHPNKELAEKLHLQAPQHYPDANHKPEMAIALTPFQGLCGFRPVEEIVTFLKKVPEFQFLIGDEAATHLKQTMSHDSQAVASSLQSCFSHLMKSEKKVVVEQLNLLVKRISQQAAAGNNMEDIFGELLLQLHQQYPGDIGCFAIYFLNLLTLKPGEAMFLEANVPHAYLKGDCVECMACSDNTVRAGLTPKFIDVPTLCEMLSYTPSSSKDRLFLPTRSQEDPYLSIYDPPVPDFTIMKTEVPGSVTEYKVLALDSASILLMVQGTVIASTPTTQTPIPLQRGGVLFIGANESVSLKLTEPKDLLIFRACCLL
Description: human PMI inhibitors, high substrate, primary screen, biochemical, fluorescence intensity, high mannose 6-phosphate (AID 1220).

A short description of assay [2]: HepG2 cell cytotoxicity, dose response, cytotoxicity control for Shn3 inhibitor project, CellTiter-Glo, cherry-picked (AID 624134). It counts as functional, cell-based. (In ATP-based viability assays light output follows the ATP content of the culture.)
Assay [3] in a line: inhibitors of PGC1a acetylation in cells, dose response, cell-based, cherry-picked samples (AID 720514).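 Note: potency may reflect raised or lowered acetylation signal.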 It counts as functional.
The target of assay [4] is T2, Tyrosine-protein phosphatase non-receptor type 22 (Homo sapiens, UniProt Q9Y2R2).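 Note: confirmatory dose-response retesting of primary uHTS hits against LYP; potency is for inhibition of phosphatase activity.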
T2 sequence (Q9Y2R2 whole entry): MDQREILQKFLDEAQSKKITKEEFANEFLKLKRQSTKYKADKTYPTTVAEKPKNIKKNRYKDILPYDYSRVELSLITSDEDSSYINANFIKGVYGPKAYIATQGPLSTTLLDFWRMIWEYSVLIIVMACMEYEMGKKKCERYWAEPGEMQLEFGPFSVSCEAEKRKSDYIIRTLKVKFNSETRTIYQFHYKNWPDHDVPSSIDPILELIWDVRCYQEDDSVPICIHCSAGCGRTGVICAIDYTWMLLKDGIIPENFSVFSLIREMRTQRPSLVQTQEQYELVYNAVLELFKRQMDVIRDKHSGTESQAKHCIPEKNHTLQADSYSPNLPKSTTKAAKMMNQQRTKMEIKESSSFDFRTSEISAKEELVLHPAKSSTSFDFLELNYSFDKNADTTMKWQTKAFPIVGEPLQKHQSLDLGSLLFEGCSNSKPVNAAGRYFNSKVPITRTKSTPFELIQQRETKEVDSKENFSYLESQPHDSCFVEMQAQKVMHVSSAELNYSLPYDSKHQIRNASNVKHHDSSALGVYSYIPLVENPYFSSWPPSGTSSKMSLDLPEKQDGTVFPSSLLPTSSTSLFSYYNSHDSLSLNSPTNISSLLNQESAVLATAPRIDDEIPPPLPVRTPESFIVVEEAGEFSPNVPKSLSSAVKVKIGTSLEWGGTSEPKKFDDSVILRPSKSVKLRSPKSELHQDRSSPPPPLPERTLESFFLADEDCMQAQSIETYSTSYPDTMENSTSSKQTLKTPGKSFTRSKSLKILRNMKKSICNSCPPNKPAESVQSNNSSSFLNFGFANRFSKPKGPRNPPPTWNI
In kind it is functional.

For assay [5], the target named is Protein disulfide-isomerase A6 (Homo sapiens, UniProt Q15084). Description: inhibitors of ERp5-mediated insulin aggregation, dose response, biochemical, turbidity, absorbance 650 nm, cherry-picked samples (AID 720566).
Assay [6] concerns the target Delta-type opioid receptor (Homo sapiens, UniProt P41143). Description: Counterscreen for agonists of heterodimerization of the mu 1 (OPRM1) and delta 1 (OPRD1) opioid receptors: Luminescence-based cell-based high throughput dose response assay to identify agonists of OPRD1 homodimerization. [Related pubchem assays (depositor defined):AID504326, AID504355, AID504692, AID504904, AID504905]. It counts as functional. On the technique in general: A counterscreen serves to expose hits that act by an unwanted route or on another target.

Assay [7] addresses MAP kinase-interacting serine/threonine-protein kinase 2 (Homo sapiens, UniProt Q9HBH9). It counts as functional.
Assay [8] has as its target Casein kinase I isoform gamma-1 (Homo sapiens, UniProt Q9HCP0). In kind it is functional.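 Note: measured as the CSNK1G1 member of a kinome profiling panel.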
The next assay addresses Insulin receptor (Homo sapiens, UniProt P06213). It counts as functional.
Assay [9] addresses Phosphorylase b kinase gamma catalytic chain, liver/testis isoform (Homo sapiens, UniProt P15735). In kind it is functional.
Assay [10] addresses MAP/microtubule affinity-regulating kinase 3 (Homo sapiens, UniProt P27448). In kind it is functional.
The target in assay [11] is Serine/threonine-protein kinase TAO1 (Homo sapiens, UniProt Q7L7X3). It counts as functional.
The target in assay [12] is Rho-associated protein kinase 1 (Homo sapiens, UniProt Q13464). In kind it is functional.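 Note: measured within a broad kinome-wide panel profiling many kinases.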
Assay [13] concerns the target Protein-tyrosine kinase 2-beta (Homo sapiens, UniProt Q14289). It counts as functional.
For assay [14], the target named is Tyrosine-protein kinase JAK3 (Homo sapiens, UniProt P52333). In kind it is functional.
Assay [15] addresses Proto-oncogene tyrosine-protein kinase Src (Homo sapiens, UniProt P12931). It counts as functional.
The target of assay [16] is Mitogen-activated protein kinase kinase kinase 20 (Homo sapiens, UniProt Q9NYL2). In kind it is functional.
Assay [17] concerns the target High affinity nerve growth factor receptor (Homo sapiens, UniProt P04629). In kind it is functional.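 Note: NTRK1 tested as one member of a kinome-wide profiling panel.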
The target in assay [18] is Cyclin-dependent kinase 2 (Homo sapiens, UniProt P24941). In kind it is functional.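 Note: CDK2 measured as one member of a broad kinome profiling panel.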
Assay [19] addresses Ribosomal protein S6 kinase beta-1 (Homo sapiens, UniProt P23443). In kind it is functional.
Assay [20] addresses Vascular endothelial growth factor receptor 1 (Homo sapiens, UniProt P17948). In kind it is functional.
In another assay the target is SRSF protein kinase 1 (Homo sapiens, UniProt Q96SB4). It counts as functional.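 Note: measured as one member of a kinome-wide kinase profiling panel.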
In assay [21] the target is Tyrosine-protein kinase ITK/TSK (Homo sapiens, UniProt Q08881). In kind it is functional.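 Note: affinity for ITK measured as one member of a broad kinase panel profiling binding across the kinome.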

Structures are written as SMILES. Activity calls are given as the source filed them.

Rho-associated protein kinase 1, sequence (Q13464 whole entry): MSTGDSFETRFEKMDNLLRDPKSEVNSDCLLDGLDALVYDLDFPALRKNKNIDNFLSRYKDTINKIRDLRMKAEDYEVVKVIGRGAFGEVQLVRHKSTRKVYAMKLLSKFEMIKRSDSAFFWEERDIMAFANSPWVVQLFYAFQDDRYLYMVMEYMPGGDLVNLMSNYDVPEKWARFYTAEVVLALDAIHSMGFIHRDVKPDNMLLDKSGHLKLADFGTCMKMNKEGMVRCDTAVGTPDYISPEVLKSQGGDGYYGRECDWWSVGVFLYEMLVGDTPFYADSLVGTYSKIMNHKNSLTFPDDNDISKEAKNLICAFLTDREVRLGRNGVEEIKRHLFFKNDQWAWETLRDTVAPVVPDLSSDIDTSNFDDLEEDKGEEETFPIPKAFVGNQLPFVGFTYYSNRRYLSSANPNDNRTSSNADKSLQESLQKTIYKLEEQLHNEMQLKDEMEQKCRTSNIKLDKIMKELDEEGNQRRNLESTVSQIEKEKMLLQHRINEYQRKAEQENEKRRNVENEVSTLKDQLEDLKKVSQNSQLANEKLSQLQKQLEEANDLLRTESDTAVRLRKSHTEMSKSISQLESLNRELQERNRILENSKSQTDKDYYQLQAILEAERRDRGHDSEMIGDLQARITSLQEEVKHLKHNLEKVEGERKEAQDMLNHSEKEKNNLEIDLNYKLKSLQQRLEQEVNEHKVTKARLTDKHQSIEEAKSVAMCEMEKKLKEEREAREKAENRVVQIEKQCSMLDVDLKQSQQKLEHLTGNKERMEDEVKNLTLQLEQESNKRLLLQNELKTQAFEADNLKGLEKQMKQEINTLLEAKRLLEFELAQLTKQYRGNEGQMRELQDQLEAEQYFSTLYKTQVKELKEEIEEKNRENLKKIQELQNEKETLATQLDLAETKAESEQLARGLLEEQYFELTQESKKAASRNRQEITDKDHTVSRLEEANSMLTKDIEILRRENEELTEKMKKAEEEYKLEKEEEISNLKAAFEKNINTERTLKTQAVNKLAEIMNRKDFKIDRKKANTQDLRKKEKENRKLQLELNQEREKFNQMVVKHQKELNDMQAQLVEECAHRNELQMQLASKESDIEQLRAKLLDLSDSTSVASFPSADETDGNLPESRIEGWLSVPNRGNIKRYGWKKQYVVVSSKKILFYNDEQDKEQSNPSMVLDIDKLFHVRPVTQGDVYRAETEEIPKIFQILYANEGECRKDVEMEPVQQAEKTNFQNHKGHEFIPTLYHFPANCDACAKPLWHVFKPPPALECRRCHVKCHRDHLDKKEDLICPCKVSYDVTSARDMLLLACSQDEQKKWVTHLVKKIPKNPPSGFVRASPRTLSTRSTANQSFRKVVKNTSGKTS
Mitogen-activated protein kinase kinase kinase 20, sequence (Q9NYL2 whole entry): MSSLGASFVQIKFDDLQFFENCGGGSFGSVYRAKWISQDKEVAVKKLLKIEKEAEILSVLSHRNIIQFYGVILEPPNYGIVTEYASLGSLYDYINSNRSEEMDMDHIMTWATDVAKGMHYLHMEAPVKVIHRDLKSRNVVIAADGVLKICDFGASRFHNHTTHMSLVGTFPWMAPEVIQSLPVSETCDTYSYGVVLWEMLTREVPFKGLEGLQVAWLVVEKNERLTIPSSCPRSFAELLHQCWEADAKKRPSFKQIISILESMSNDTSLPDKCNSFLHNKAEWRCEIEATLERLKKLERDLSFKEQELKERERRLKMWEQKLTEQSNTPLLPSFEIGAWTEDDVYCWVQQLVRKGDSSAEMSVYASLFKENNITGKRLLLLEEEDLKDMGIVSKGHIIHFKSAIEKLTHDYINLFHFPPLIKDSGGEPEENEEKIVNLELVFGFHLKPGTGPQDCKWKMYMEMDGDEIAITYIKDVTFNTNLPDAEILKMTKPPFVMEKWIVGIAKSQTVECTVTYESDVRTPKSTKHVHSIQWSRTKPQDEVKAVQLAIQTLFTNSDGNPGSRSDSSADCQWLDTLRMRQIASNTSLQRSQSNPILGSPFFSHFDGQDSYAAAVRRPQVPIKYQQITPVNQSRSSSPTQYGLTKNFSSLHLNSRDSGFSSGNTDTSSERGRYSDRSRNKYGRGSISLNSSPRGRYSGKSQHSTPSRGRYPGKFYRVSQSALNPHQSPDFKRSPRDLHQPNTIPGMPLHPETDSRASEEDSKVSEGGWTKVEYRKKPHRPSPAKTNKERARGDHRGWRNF
MAP kinase-interacting serine/threonine-protein kinase 2, sequence (Q9HBH9 whole entry, canonical isoform): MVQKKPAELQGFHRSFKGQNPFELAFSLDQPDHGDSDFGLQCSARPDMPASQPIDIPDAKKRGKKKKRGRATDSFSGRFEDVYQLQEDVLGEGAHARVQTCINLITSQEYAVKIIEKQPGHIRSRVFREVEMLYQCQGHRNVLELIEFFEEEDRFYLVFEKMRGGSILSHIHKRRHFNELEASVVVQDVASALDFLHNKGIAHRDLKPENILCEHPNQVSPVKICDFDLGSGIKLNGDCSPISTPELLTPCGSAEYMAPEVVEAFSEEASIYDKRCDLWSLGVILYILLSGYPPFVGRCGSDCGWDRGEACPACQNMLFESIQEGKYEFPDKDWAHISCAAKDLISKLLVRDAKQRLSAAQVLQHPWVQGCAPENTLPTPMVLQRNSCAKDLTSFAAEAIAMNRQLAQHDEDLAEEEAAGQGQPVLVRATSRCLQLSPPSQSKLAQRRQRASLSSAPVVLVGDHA
Protein disulfide-isomerase A6, sequence (Q15084 whole entry): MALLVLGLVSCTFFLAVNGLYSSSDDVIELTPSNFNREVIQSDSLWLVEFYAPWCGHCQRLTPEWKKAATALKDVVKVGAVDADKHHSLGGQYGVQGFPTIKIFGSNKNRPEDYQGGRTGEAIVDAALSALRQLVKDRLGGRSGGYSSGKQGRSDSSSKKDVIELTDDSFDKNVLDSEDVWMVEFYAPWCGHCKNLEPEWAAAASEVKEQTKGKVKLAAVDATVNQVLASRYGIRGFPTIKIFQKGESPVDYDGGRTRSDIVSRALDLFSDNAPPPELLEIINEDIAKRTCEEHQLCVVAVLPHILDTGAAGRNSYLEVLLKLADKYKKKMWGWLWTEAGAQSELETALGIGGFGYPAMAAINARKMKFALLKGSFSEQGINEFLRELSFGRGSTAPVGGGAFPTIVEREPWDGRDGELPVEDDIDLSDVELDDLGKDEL
Tyrosine-protein kinase ITK/TSK, sequence (Q08881 whole entry): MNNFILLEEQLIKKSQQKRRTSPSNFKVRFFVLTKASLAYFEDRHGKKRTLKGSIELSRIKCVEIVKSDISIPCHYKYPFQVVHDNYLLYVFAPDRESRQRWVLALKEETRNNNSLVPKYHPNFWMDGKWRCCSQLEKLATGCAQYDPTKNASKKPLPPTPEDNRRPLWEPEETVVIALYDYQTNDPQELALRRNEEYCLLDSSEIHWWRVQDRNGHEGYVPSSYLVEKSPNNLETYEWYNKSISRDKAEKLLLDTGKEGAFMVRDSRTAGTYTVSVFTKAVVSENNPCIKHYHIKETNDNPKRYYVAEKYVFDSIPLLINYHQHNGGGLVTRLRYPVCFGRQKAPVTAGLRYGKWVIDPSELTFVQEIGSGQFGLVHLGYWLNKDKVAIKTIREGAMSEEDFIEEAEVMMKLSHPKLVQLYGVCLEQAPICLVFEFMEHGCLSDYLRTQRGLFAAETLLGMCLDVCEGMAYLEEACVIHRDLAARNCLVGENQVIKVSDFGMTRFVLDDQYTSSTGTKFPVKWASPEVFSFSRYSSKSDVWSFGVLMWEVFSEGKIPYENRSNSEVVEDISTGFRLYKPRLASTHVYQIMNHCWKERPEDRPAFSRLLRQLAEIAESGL
Insulin receptor, sequence (P06213 28-758 limits assumed): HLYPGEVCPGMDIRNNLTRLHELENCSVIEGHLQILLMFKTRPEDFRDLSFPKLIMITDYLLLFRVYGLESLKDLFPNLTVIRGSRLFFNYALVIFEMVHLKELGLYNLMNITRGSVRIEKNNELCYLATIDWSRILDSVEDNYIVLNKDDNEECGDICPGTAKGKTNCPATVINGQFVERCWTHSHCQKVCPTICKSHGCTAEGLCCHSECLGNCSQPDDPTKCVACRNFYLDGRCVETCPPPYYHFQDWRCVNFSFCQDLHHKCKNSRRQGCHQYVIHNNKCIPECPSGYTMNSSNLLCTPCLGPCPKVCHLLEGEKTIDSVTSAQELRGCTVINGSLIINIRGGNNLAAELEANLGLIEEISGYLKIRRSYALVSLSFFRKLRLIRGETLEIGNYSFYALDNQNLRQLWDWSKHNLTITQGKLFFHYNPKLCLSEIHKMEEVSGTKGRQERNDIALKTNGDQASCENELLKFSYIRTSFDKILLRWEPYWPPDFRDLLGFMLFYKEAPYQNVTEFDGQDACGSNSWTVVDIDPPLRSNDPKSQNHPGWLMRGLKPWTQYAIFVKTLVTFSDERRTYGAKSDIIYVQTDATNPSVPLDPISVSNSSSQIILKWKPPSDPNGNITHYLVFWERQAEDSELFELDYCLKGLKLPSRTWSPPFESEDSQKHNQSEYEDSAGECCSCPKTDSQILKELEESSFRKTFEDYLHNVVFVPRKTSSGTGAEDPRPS
Insulin receptor, sequence (P06213 763-1382 limits assumed): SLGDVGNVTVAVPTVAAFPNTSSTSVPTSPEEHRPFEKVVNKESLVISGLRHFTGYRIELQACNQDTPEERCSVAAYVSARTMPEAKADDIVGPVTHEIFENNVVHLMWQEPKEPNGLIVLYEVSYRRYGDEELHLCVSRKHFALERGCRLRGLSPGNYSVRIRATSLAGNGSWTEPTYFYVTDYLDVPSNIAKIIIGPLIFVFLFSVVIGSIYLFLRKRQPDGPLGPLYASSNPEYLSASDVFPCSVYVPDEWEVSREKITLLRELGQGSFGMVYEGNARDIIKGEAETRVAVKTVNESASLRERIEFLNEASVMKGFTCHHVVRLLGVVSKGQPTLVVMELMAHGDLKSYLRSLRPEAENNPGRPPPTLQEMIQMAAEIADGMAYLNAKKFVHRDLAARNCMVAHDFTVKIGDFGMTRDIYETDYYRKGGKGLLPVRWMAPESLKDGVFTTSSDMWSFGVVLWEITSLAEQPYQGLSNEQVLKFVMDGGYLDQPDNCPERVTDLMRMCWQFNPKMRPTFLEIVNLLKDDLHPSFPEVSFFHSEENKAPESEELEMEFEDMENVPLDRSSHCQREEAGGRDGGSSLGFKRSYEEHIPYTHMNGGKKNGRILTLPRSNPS

Regarding `CCCc1nc2c(=O)n(C)c(=O)nc-2n(C)n1`, the IC50 in [1] was 13.2 µM (active); in [4], 1.78 µM (active). The half-maximal activity concentration (AC50) in assay [2] is 4.96 µM (active); in assay [3], 2.95 µM (active); in [5] it was 0.513 µM (active). Also, in assay [6], the EC50 is > 92.5 µM (inactive).

`COc1cc2ncn(-c3cc(OCc4ccccc4C(F)(F)F)c(C(N)=O)s3)c2cc1OC` [GW843682X]: the Ki in assay [7] is > 10 µM (inactive); in assay [8] it was > 6.31 µM (inactive); on Insulin receptor, > 5.01 µM (inactive); in assay [9], > 5.01 µM (inactive); in [10], > 6.31 µM (inactive); in assay [11], > 10 µM (inactive). Moreover, the Ki was > 10 µM (inactive) in [12]; 0.158 µM (active) in assay [13]; 0.2 µM (active) in [14]; 5.01 µM (active) in assay [15]; > 7.94 µM (inactive) in [16]; 0.398 µM (active) in [17]. Besides, the Ki in assay [18] is > 7.94 µM (inactive); in [19], > 6.31 µM (inactive); in assay [20], 0.126 µM (active); at SRSF protein kinase 1, > 7.94 µM (inactive); in [21], 1 µM (active).

Usually IC50 stands for the midpoint of a concentration-inhibition curve. In general, AC50 refers to the midpoint of the concentration-response curve, whichever way the signal moves. For orientation: EC50 means the concentration that produces a half-maximal response. Usually Ki stands for a dissociation constant, usually derived from enzyme kinetics or from competition with a known ligand.
